Measurements from patent publication US10399980B2, “Purinones as ubiquitin-specific protease 1 inhibitors” (FORMA Therapeutics, Inc., priority 2015, dated 2019).

target: USP1, construct USP1 (1-785, GG670, 671AA)/UAF1 (1-677)-Flag (Homo sapiens (Human), UniProt O94782, G670A/G671A); test: Ubiquitin-Rhodamine 110 assay for USP1 activity, follow-up IC50 studies; format: biochemical; details: USP1/UAF1, 30 min preincubation
Experimental: Example 53: Ubitquin-Rhodamine 110 Assay for USP1 Activity
Nanoliter quantities of either an 8-point or 10-point, 3-fold serial dilution in DMSO was pre-dispensed into assay plates (Perkin Elmer, ProxiPlate-384 F Plus, #6008269) for a final test concentration range of either 25 μM to 11 nM or 25 μM to 1.3 nM, respectively. The final concentration of the enzyme (USP1, construct USP1 (1-785, GG670, 671AA)/UAF1 (1-677)-Flag; Viva) in the assay was 25 pM. Final substrate (Ub-Rh110; Ubiquitin-Rhodamine 110, R&D Systems #U-555) concentration was 25 nM with [Ub-Rh110]<<Km. […] Plates were incubated stacked for 20 minutes at room temperature before 5 μL of stop solution (final concentration of 10 mM citric acid in assay buffer (Sigma, #251275-500G)). Fluorescence was read on the Envision (Excitation at 485 nm and Emission at 535 nm; Perkin Elmer) or on the PheraSTAR (Excitation at 485 nm and Emission at 535 nm; BMG Labtech).
For both assay formats data were reported as percent inhibition compared with control wells based on the following equation: % inh=[1−((FLU−AveLow)/(AveHigh−AveLow))]×100 where FLU=measured Fluorescence, AveLow=average Fluorescence of no enzyme control (n=16), and AveHigh=average Fluorescence of DMSO control (n=16). IC50 values were determined by curve fitting of the standard 4 parameter logistic fitting algorithm included in the Activity Base software package: IDBS XE Designer Model205. Data is fitted using the Levenburg Marquardt algorithm.

Chain of USP1, construct USP1 (1-785, GG670, 671AA)/UAF1 (1-677)-Flag (O94782 whole entry G670A/G671A): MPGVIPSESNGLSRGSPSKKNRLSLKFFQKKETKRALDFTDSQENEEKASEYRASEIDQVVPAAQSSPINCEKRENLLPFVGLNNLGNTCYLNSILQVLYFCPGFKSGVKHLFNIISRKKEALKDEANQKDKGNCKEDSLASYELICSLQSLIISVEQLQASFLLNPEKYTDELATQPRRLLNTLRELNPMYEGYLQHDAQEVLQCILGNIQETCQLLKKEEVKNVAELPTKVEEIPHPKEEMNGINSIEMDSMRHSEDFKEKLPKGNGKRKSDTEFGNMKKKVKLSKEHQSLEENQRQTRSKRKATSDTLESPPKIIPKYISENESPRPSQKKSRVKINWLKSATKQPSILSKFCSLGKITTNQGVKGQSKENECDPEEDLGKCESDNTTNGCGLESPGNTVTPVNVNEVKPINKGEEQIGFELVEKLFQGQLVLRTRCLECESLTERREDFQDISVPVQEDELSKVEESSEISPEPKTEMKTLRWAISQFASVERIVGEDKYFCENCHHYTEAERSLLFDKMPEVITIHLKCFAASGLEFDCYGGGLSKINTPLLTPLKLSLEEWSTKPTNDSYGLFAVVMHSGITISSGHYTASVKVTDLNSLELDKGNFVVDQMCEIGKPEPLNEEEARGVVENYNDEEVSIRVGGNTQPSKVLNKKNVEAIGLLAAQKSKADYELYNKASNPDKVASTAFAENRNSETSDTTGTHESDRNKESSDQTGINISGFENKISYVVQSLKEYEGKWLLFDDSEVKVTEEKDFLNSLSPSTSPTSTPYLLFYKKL
Chain of USP1, construct USP1 (1-785, GG670, 671AA)/UAF1 (1-677)-Flag (Q8TAF3 whole entry partner): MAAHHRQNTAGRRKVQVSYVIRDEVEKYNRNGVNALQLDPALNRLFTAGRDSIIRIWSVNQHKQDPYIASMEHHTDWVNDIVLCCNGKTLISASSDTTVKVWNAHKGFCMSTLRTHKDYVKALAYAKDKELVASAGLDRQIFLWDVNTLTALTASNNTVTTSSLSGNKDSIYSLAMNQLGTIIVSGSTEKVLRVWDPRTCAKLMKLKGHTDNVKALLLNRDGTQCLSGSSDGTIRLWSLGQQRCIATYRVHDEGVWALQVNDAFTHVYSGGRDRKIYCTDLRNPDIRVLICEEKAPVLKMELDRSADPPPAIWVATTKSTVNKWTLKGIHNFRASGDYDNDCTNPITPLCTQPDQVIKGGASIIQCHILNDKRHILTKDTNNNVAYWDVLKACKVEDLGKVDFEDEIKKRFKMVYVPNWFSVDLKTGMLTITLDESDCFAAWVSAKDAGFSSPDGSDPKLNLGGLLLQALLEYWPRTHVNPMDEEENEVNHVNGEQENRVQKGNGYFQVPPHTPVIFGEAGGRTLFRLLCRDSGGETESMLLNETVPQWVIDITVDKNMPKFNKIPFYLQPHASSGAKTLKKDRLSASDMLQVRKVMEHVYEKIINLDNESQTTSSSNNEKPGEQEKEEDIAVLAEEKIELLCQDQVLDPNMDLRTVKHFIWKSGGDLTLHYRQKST

First: Cn1cc(C(F)(F)F)nc1-c1ccc(Cn2c(=O)n(C)c3cnc(-c4ccccc4C4CC4)nc32)cc1 [I-70, 2-(2-cyclopropylphenyl)-7-methyl-9-(4-(1-methyl-4-(trifluoromethyl)-1H-imidazol-2-yl)benzyl)-7,9-dihydro-8H-purin-8-one]
Second: Cc1cc(C)n([C@H]2CC[C@@H](Cn3c(=O)n(C)c4cnc(-c5ccccc5C(C)C)nc43)CC2)n1 [I-111, 9-(((1s,4s)-4-(3,5-dimethyl-1H-pyrazol-1-yl)cyclohexyl)methyl)-2-(2-isopropylphenyl)-7-methyl-7,9-dihydro-8H-purin-8-one]
The IC50 of the first is lower: less than 50 nM for the first, 50 to 200 nM for the second.

Molecule `Cc1cc(C)n([C@H]2CC[C@H](Cn3c(=O)[nH]c4cnc(-c5ccccc5C(C)C)nc43)CC2)n1` [I-213, 9-(((1r,4r)-4-(3,5-dimethyl-1H-pyrazol-1-yl)cyclohexyl)methyl)-2-(2-isopropylphenyl)-7,9-dihydro-8H-purin-8-one] has an IC50 of 200 to 2000 nM.
